Data published in patent publication US12404289B2 (Gilead Sciences, Inc., priority 2020, dated 2025).

Tested on: Respiratory syncytial virus (RSV) strain A2
Test: Hep-2 RSV2 384-well assay (EC50-HEP2-384)
Assay type: cell-based
Conditions: HEp-2 cells, RSV A2, MOI=4, 4 days, Table 3

Compound	EC50 [µM]
CCCOC(=O)[C@H](C)NP(=O)(OC[C@H]1O[C@@](C#N)(c2ccc3c(N)ncnn23)[C@H](O)[C@@H]1O)Oc1ccc(C(C)(C)C)cc1 (single isomer, unassigned) [Example 47b]	0.0683
C[C@H](NP(=O)(OC[C@H]1O[C@@](C#N)(c2ccc3c(N)ncnn23)[C@H](O)[C@@H]1O)Oc1ccc(C(C)(C)C)cc1)C(=O)OC1CCC1 (single isomer, unassigned) [Example 31b]	0.0411
CCC(CC)COC(=O)[C@H](C)N[P@@](=O)(OC[C@H]1O[C@@](C#N)(c2ccc3c(N)ncnn23)[C@H](OC(C)=O)[C@@H]1OC(C)=O)Oc1cccc2c1CCCC2 [Example 147, (2R,3R,4R,5R)-2-(4-aminopyrrolo[2,1-f][1,2,4]triazin-7-yl)-2-cyano-5-((((R)—(((S)-1-(2-ethylbutoxy)-1-oxopropan-2-yl)amino)((5,6,7,8-tetrahydronaphthalen-1-yl)oxy)phosphoryl)oxy)methyl)tetrahydrofuran-3,4-diyl Diacetate]	0.334

Same assay, conditions: human respiratory syncytial virus, HEp-2, 96 h, HEp-2 cells, RSV A2, MOI=4, 4 days, Table 3

Compound	EC50 [µM]
CC(C)C(=O)O[C@H]1[C@@H](OC(=O)C(C)C)[C@](C#N)(c2ccc3c(N)ncnn23)O[C@@H]1CO[P@@](=O)(N[C@@H](C)C(=O)O[C@H]1CCOC1)Oc1ccc(C(C)(C)C)cc1 [Example 38, (2R,3R,4R,5R)-2-(4-aminopyrrolo[2,1-f][1,2,4]triazin-7-yl)-5-((((4-(tert-butyl)phenoxy)(((S)-1-oxo-1-(((S)-tetrahydrofuran-3-yl)oxy)propan-2-yl)amino)phosphoryl)oxy)methyl)-2-cyanotetrahydrofuran-3,4-diyl bis(2-methylpropanoate)]	0.138
COC(C)(C)COC(=O)[C@H](C)NP(=O)(OC[C@H]1O[C@@](C#N)(c2ccc3c(N)ncnn23)[C@H](O)[C@@H]1O)Oc1cccc2ccccc12 (stereo partly drawn) [Example 128, 2-methoxy-2-methylpropyl ((((2R,3S,4R,5R)-5-(4-aminopyrrolo[2,1-f][1,2,4]triazin-7-yl)-5-cyano-3,4-dihydroxytetrahydrofuran-2-yl)methoxy)(naphthalen-1-yloxy)phosphoryl)-L-alaninate]	0.525
CC(C)C(=O)O[C@H]1[C@@H](OC(=O)C(C)C)[C@](C#N)(c2ccc3c(N)ncnn23)O[C@@H]1COP(=O)(N[C@@H](C)C(=O)O[C@H]1CCOC1)Oc1ccc(C(C)(C)C)cc1 (stereo partly drawn) [Example 36, (2R,3R,4R,5R)-2-(4-aminopyrrolo[2,1-f][1,2,4]triazin-7-yl)-5-((((4-(tert-butyl)phenoxy)(((S)-1-oxo-1-(((S)-tetrahydrofuran-3-yl)oxy)propan-2-yl)amino)phosphoryl)oxy)methyl)-2-cyanotetrahydrofuran-3,4-diyl bis(2-methylpropanoate)]	0.102
CCC(=O)O[C@H]1[C@@H](OC(=O)CC)[C@](C#N)(c2ccc3c(N)ncnn23)O[C@@H]1COP(=O)(N[C@@H](C)C(=O)OCC(C)(C)OC)Oc1ccc(C(C)(C)C)cc1 (stereo partly drawn) [Example 130, (2R,3R,4R,5R)-2-(4-aminopyrrolo[2,1-f][1,2,4]triazin-7-yl)-5-((((4-(tert-butyl)phenoxy)(((S)-1-(2-methoxy-2-methylpropoxy)-1-oxopropan-2-yl)amino)phosphoryl)oxy)methyl)-2-cyanotetrahydrofuran-3,4-diyl Dipropionate]	0.0528
C[C@H](NP(=O)(OC[C@H]1O[C@@](C#N)(c2ccc3c(N)ncnn23)[C@H](O)[C@@H]1O)Oc1ccc(C(C)(C)C)cc1)C(=O)O[C@H]1CCOC1 (stereo partly drawn) [Example 34, (S)-tetrahydrofuran-3-yl ((((2R,3S,4R,5R)-5-(4-aminopyrrolo[2,1-f][1,2,4]triazin-7-yl)-5-cyano-3,4-dihydroxytetrahydrofuran-2-yl)methoxy)(4-(tert-butyl)phenoxy)phosphoryl)-L-alaninate]	1.5
CCCOC(=O)[C@H](C)NP(=O)(OC[C@H]1O[C@@](C#N)(c2ccc3c(N)ncnn23)[C@H](OC(=O)C(C)C)[C@@H]1OC(=O)C(C)C)Oc1ccc(C(C)(C)C)cc1 (single isomer, unassigned) [Example 48a]	0.034
CCC(CC)COC(=O)[C@H](C)NP(=O)(OC[C@H]1O[C@@](C#N)(c2ccc3c(N)ncnn23)[C@H](O)[C@@H]1O)Oc1ccc(C#N)cc1 (stereo partly drawn) [Example 39, 2-ethylbutyl ((((2R,3S,4R,5R)-5-(4-aminopyrrolo[2,1-f][1,2,4]triazin-7-yl)-5-cyano-3,4-dihydroxytetrahydrofuran-2-yl)methoxy)(4-cyanophenoxy)phosphoryl)-L-alaninate]	1.6
COCCOC(=O)[C@H](C)NP(=O)(OC[C@H]1O[C@@](C#N)(c2ccc3c(N)ncnn23)[C@H](OC(=O)C(C)C)[C@@H]1OC(=O)C(C)C)Oc1ccc(C(C)(C)C)cc1 (stereo partly drawn) [Example 151, (2R,3R,4R,5R)-2-(4-aminopyrrolo[2,1-f][1,2,4]triazin-7-yl)-5-((((4-(tert-butyl)phenoxy)(((S)-1-(2-methoxyethoxy)-1-oxopropan-2-yl)amino)phosphoryl)oxy)methyl)-2-cyanotetrahydrofuran-3,4-diyl bis(2-methylpropanoate)]	0.0556
C[C@H](NP(=O)(OC[C@H]1O[C@@](C#N)(c2ccc3c(N)ncnn23)[C@H](O)[C@@H]1O)Oc1ccc(C(C)(C)C)cc1)C(=O)OCc1ccccc1 (stereo partly drawn) [Example 57, Benzyl ((((2R,3S,4R,5R)-5-(4-aminopyrrolo[2,1-f][1,2,4]triazin-7-yl)-5-cyano-3,4-dihydroxytetrahydrofuran-2-yl)methoxy)(4-(tert-butyl)phenoxy)phosphoryl)-L-alaninate]	0.186
CCC(CC)COC(=O)[C@H](C)NP(=O)(OC[C@H]1O[C@@](C#N)(c2ccc3c(N)ncnn23)[C@H](OC(=O)C(C)C)[C@@H]1OC(=O)C(C)C)Oc1ccc2c(c1)CCCC2 (stereo partly drawn) [Example 132, (2R,3R,4R,5R)-2-(4-aminopyrrolo[2,1-f][1,2,4]triazin-7-yl)-2-cyano-5-((((((S)-1-(2-ethylbutoxy)-1-oxopropan-2-yl)amino)((5,6,7,8-tetrahydronaphthalen-2-yl)oxy)phosphoryl)oxy)methyl) tetrahydrofuran-3,4-diyl bis(2-methylpropanoate)]	0.126
COC(C)COC(=O)[C@H](C)NP(=O)(OC[C@H]1O[C@@](C#N)(c2ccc3c(N)ncnn23)[C@H](OC(C)=O)[C@@H]1OC(C)=O)Oc1ccc(C(C)(C)C)cc1 (stereo partly drawn) [Example 161, (2R,3R,4R,5R)-2-(4-aminopyrrolo[2,1-f][1,2,4]triazin-7-yl)-5-((((4-(tert-butyl)phenoxy)(((2S)-1-(2-methoxypropoxy)-1-oxopropan-2-yl)amino)phosphoryl)oxy)methyl)-2-cyanotetrahydrofuran-3,4-diyl Diacetate]	0.113
CCC(CC)COC(=O)[C@H](C)NP(=O)(OC[C@H]1O[C@@](C#N)(c2ccc3c(N)ncnn23)[C@H](O)[C@@H]1O)Oc1ccc2c(c1)CCCC2 (stereo partly drawn) [Example 129, 2-ethylbutyl ((((2R,3S,4R,5R)-5-(4-aminopyrrolo[2,1-f][1,2,4]triazin-7-yl)-5-cyano-3,4-dihydroxytetrahydrofuran-2-yl)methoxy)((5,6,7,8-tetrahydronaphthalen-2-yl)oxy)phosphoryl)-L-alaninate]	0.362
CCC(CC)COC(=O)[C@H](C)NP(=O)(OC[C@H]1O[C@@](C#N)(c2ccc3c(N)ncnn23)[C@H](OC(=O)C(C)C)[C@@H]1OC(=O)C(C)C)Oc1ccc(C#N)cc1 (stereo partly drawn) [Example 40, (2R,3R,4R,5R)-2-(4-aminopyrrolo[2,1-f][1,2,4]triazin-7-yl)-2-cyano-5-((((4-cyanophenoxy)(((S)-1-(2-ethylbutoxy)-1-oxopropan-2-yl)amino)phosphoryl)oxy)methyl)tetrahydrofuran-3,4-diyl bis(2-methylpropanoate)]	0.226
C[C@H](NP(=O)(OC[C@H]1O[C@@](C#N)(c2ccc3c(N)ncnn23)[C@H](O)[C@@H]1O)Oc1ccc(C(C)(C)C)cc1)C(=O)OC1CCCCC1 (stereo partly drawn) [Example 142, cyclohexyl ((((2R,3S,4R,5R)-5-(4-aminopyrrolo[2,1-f][1,2,4]triazin-7-yl)-5-cyano-3,4-dihydroxytetrahydrofuran-2-yl)methoxy)(4-(tert-butyl)phenoxy)phosphoryl)-L-alaninate]	0.0735
CCOC(=O)[C@H](C)NP(=O)(OC[C@H]1O[C@@](C#N)(c2ccc3c(N)ncnn23)[C@H](OC(=O)CC(C)C)[C@@H]1OC(=O)CC(C)C)Oc1ccc(C(C)(C)C)cc1 (stereo partly drawn) [Example 158, (2R,3R,4R,5R)-2-(4-aminopyrrolo[2,1-f][1,2,4]triazin-7-yl)-5-((((4-(tert-butyl)phenoxy)(((S)-1-ethoxy-1-oxopropan-2-yl)amino)phosphoryl)oxy)methyl)-2-cyanotetrahydrofuran-3,4-diyl bis(3-methylbutanoate)]	0.272
COCCOC(=O)[C@H](C)NP(=O)(OC[C@H]1O[C@@](C#N)(c2ccc3c(N)ncnn23)[C@H](OC(C)=O)[C@@H]1OC(C)=O)Oc1ccc(C(C)(C)C)cc1 (stereo partly drawn) [Example 150, (2R,3R,4R,5R)-2-(4-aminopyrrolo[2,1-f][1,2,4]triazin-7-yl)-5-((((4-(tert-butyl)phenoxy)(((S)-1-(2-methoxyethoxy)-1-oxopropan-2-yl)amino)phosphoryl)oxy)methyl)-2-cyanotetrahydrofuran-3,4-diyl Diacetate]	0.0782
CCCOC(=O)[C@H](C)NP(=O)(OC[C@H]1O[C@@](C#N)(c2ccc3c(N)ncnn23)[C@H](O)[C@@H]1O)Oc1ccc(C(C)(C)C)cc1 (single isomer, unassigned) [Example 47a]	0.0416
CC(C)COC(=O)[C@H](C)NP(=O)(OC[C@H]1O[C@@](C#N)(c2ccc3c(N)ncnn23)[C@H](OC(=O)CC(C)C)[C@@H]1OC(=O)CC(C)C)Oc1ccc(C(C)(C)C)cc1 (stereo partly drawn) [Example 139, (2R,3R,4R,5R)-2-(4-aminopyrrolo[2,1-f][1,2,4]triazin-7-yl)-5-((((4-(tert-butyl)phenoxy)(((S)-1-isobutoxy-1-oxopropan-2-yl)amino)phosphoryl)oxy)methyl)-2-cyanotetrahydrofuran-3,4-diyl bis(3-methylbutanoate)]	0.194
